Laboratory results published in US20250283073A1 (ORNA THERAPEUTICS, INC., priority 2021, published 2025).

Experiments:
splenic immune cells = assay: Cre circRNA LNP transfection of splenic immune cells in Ai9 Cre reporter mice (tdTomato); type: in vivo; details: 0.5 mg/kg Cre RNA LNPs i.v., 48 hours
Experimental: Circular RNAs encoding Cre recombinase (Cre) are encapsulated into lipid nanoparticles as previously described. Female, 6-8 week old B6.Cg-Gt(ROSA)26Sortm9(CAG-tdTomato)Hze/J (Ai9) mice were dosed with lipid nanoparticles at 0.5 mg/kg RNA intravenously. Fluorescent tdTomato protein was transcribed and translated in Ai9 mice upon Cre recombination, meaning circular RNAs have been delivered to and translated in tdTomato+ cells. After 48 hr, mice were euthanized and the spleens were harvested, processed into a single cell suspension, and stained with various fluorophore-conjugated antibodies for immunophenotyping via flow cytometry.
Ai9 mice (B6.Cg-Gt(ROSA)26Sortm9(CAG-tdTomato)Hze/J, female, 6-8 weeks, n=3 per group) were injected i.v. with 0.5 mg/kg Cre circRNA LNPs or PBS. Ai9 mice transcribe and translate the fluorescent reporter tdTomato upon Cre recombination; meaning cells which are tdTomato+ have successfully been transfected with Cre circRNA. […] Flow cytometry was performed using an Attune Nxt Flow Cytometer (Thermo).

primary human T cells = assay: FLuc circRNA LNP transfection of activated primary human T cells with or without ApoE3; type: cell-based; details: 200 ng RNA/well, 24 hours, 4 donors
Experimental: Primary human T cells from independent donors were stimulated with aCD3/aCD28 and allowed to proliferate for 6 days in the presence of human serum and IL-2. Then, 100,000 cells were plated in a 96 well plate and LNPs containing circRNA coding for Firefly Luciferase (FLuc) were added to the cells at 200 ng RNA/well with or without Apolipoprotein E3 (ApoE3). After 24-hour incubation, luminescence was quantified using the Bright-Glo Luciferase Assay System (Promega) according to manufacturer's instructions and background luminescence from cells not treated with LNPs was subtracted. […] (See Example 70 for LNP formulation procesure, e.g., for 10a-27 (5.7A), 10a-26 (5.7A), 10a-27 (4.5D), and 10a-26 (4.5D) LNPs.)

For CCCCCCCCC(CCCCCC)C(=O)OCCCCCCN(CCCCCCOC(=O)C(CCCCCC)CCCCCCCC)CCCn1ccnc1C (centres unmarked) [Lipid 10a-27, ((3-(2-methyl-1H-imidazol-1-yl)propyl)azanediyl)bis(hexane-6,1-diyl) bis(2-hexyldecanoate)], the “tdTomato+ splenic immune cells” value (splenic immune cells) was “transfect significantly more splenic immune cells than those made with Lipid 10a-46” and the Firefly luminescence (primary human T cells) was “generally produced higher luminescence than those containing Lipid 10a-26”.
